Assay results reported in article PMC3310894 (Bioorganic & medicinal chemistry, 2012).

What was measured:
[1] = system: COLO-205 tumor xenografts; test: COLO-205 human metastatic colon mouse xenograft; type: in vivo; settings: athymic mice, 11a 35 mg/kg, 8 10 mg/kg, three times weekly, IP
[2] = mice; 35 mg/kg of 11a, 10 mg/kg of 8
VEGFR-1 = VEGFR-1 (Homo sapiens, UniProt P17948); settings: for VEGFR-1 inhibition, fold less active than the standard 21: relative to standard 21
VEGFR-2 = VEGFR-2 (Homo sapiens, UniProt P35968); settings: for VEGFR-2 inhibition, fold less active than the standard 23: relative to standard 23
EGFR = EGFR (Homo sapiens, UniProt P00533); settings: for EGFR inhibition, fold less potent than the standard 20: relative to standard 20 (PD153035)
PDGFR-β = PDGFR-β (Homo sapiens, UniProt P09619); settings: for PDGFRβ inhibition, fold less active than the standard 22: relative to standard 22 (AG1295)
PDGFR-β, sequence (P09619 33-1106): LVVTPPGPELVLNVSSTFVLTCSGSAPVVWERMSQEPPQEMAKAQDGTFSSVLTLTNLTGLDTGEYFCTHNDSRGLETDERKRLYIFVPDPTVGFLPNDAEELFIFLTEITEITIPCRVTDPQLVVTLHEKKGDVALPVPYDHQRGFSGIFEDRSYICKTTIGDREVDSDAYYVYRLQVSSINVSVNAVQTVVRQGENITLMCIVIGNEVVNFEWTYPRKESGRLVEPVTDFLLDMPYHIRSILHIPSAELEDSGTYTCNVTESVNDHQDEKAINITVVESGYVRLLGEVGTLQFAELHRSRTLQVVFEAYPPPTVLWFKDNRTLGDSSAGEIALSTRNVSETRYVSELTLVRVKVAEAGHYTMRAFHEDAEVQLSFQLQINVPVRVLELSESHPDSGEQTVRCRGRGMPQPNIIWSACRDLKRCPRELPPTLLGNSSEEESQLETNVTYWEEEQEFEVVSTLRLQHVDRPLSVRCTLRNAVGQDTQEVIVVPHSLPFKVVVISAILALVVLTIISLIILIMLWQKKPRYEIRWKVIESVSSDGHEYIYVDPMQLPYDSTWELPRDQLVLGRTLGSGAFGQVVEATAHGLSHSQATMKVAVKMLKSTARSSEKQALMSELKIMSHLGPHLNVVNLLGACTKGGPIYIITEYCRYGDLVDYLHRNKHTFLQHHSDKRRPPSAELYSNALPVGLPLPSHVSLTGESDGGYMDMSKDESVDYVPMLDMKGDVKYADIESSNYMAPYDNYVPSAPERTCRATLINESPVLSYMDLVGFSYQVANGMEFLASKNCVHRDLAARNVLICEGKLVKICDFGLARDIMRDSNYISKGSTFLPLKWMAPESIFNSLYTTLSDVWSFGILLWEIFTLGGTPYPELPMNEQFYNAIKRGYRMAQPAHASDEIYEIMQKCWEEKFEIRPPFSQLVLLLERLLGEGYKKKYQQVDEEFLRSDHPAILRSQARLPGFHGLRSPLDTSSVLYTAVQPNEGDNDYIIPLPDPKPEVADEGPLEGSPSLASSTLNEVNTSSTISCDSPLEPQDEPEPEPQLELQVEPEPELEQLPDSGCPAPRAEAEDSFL

VEGFR-2, sequence (P35968 20-1356): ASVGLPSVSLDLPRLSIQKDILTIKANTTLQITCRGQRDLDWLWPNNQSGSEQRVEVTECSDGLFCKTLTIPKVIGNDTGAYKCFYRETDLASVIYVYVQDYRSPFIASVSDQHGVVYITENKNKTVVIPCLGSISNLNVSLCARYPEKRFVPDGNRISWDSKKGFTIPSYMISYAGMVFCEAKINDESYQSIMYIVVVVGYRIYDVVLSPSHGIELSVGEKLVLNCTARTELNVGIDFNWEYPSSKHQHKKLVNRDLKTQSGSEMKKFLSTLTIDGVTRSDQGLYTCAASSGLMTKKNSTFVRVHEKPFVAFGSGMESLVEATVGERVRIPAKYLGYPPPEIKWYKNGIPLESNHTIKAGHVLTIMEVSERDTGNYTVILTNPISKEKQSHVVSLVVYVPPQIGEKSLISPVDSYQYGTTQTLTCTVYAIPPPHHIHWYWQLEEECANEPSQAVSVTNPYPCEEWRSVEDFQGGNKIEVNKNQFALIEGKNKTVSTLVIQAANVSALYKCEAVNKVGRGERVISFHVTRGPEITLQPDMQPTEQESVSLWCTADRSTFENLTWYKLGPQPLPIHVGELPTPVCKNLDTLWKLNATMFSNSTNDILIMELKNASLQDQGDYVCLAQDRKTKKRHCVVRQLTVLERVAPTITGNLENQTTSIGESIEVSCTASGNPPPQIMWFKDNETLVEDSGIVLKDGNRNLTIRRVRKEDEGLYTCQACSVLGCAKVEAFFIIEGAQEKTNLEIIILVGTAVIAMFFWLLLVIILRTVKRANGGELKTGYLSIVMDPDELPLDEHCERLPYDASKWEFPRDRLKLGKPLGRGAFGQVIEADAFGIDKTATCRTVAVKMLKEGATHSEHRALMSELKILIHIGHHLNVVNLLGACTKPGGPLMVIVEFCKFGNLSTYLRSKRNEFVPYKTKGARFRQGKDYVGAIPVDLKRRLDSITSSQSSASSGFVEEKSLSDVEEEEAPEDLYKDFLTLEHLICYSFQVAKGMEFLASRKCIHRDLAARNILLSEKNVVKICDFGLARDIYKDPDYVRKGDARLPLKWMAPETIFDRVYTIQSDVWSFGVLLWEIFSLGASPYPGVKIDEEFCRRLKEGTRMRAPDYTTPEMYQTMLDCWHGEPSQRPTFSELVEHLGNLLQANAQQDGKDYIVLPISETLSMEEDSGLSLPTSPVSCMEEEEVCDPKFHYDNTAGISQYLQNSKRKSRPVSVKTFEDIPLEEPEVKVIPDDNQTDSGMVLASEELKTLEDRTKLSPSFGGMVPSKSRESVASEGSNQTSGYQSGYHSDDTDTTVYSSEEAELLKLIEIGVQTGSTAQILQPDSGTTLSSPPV
VEGFR-1, sequence (P17948 27-1338): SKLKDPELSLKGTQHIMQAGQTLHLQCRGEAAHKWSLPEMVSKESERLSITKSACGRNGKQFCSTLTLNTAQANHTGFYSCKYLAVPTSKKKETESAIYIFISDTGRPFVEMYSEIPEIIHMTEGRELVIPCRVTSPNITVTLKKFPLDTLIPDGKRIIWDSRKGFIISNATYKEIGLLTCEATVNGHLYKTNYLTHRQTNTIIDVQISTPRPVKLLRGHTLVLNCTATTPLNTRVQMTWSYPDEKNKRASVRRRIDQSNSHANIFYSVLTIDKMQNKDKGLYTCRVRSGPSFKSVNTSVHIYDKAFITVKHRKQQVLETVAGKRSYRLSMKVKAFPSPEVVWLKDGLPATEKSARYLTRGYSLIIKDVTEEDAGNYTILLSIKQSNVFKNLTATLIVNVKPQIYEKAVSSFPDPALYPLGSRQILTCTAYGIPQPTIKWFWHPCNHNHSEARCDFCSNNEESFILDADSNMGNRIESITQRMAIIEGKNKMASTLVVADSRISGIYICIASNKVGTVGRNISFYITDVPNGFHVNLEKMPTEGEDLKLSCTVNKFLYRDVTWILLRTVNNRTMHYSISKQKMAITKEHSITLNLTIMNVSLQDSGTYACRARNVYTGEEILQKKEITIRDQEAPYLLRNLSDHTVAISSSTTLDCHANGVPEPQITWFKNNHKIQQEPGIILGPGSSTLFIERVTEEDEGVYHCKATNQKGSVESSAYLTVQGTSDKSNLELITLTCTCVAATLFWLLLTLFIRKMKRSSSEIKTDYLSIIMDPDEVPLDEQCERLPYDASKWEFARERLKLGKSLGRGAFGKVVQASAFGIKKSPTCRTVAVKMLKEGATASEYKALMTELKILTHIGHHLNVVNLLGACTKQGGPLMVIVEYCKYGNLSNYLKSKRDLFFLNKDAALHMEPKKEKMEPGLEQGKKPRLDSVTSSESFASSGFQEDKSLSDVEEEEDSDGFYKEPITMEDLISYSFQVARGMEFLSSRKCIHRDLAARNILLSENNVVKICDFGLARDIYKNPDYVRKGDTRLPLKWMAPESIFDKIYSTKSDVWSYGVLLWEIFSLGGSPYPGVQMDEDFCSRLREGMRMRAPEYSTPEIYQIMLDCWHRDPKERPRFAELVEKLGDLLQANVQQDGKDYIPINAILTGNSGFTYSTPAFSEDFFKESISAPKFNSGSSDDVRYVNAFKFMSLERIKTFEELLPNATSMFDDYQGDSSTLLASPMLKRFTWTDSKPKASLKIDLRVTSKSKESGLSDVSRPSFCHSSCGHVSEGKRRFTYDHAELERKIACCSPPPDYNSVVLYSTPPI
EGFR, sequence (P00533 25-1210): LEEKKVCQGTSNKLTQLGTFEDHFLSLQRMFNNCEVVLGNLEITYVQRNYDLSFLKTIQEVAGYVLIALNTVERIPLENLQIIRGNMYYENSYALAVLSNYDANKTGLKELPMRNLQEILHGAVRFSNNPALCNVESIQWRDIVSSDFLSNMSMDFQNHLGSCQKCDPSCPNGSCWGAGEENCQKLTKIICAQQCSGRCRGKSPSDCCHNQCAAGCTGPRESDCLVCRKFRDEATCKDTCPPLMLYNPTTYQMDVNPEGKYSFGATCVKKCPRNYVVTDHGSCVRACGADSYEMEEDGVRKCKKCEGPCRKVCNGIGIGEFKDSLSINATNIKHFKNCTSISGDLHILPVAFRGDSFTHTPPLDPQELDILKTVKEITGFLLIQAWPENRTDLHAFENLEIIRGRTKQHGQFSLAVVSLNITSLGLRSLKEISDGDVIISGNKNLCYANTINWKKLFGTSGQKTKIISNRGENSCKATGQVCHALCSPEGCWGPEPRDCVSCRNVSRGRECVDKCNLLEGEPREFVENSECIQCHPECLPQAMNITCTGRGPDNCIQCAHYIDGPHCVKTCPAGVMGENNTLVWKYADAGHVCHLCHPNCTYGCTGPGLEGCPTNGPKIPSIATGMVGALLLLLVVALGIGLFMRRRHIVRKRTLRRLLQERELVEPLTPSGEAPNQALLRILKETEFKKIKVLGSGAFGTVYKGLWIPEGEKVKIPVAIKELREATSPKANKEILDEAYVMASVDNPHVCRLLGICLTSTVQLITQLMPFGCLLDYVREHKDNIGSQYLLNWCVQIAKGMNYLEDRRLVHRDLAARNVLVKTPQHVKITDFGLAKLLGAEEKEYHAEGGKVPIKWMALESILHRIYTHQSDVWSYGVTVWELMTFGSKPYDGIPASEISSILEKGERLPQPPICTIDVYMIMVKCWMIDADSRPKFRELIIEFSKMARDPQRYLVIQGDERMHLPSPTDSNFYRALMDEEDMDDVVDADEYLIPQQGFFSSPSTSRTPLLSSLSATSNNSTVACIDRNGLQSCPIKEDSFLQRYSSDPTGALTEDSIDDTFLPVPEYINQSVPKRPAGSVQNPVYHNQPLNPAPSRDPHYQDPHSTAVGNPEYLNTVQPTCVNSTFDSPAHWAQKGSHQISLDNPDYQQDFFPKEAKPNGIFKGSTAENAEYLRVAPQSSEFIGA

EGFR inhibition, result in words (EGFR) | SMILES | VEGFR-1 inhibition, fold less active than the standard 21 (VEGFR-1) | VEGFR-2 inhibition, fold less active than the standard 23 (VEGFR-2) [fold] | also measured
– | Cc1[nH]c(/C=C2\C(=O)Nc3ccccc32)c(C)c1CCC(=O)O [Compound 8, TSU-68, reference compound] | – | – | primary tumor growth rate compared to the control [1]: significant decreases; primary tumor vascularity compared to control animals [1]: significant decrease; toxicity in six week toxicity determination study [2]: no overt toxicity
– | Nc1nc(Nc2cccc(Br)c2)c2ccn(Cc3ccccc3)c2n1 [Compound 9a, 7-benzyl-N^4-(3-bromophenyl)-7H-pyrrolo[2,3-d]pyrimidine-2,4-diamine] | 5.6 fold | 2 | EGFR inhibition, fold less potent than the standard 20 (EGFR): about 800 fold
– | Nc1nc(Nc2cccc(Br)c2)c2ccn(Cc3ccccc3Cl)c2n1 [Compound 11a, N^4-(3-bromophenyl)-7-(2-chlorobenzyl)-7H-pyrrolo[2,3-d]pyrimidine-2,4-diamine] | 7 fold | 1.6 | numbers of COLO-205 metastases to the liver [1]: significantly reduced numbers; primary tumor growth rate compared to the control [1]: significant decreases; primary tumor vascularity compared to control animals [1]: significant decrease; PDGFRβ inhibition, result in words (PDGFR-β): single digit micromolar concentrations; PDGFRβ inhibition, fold more active than parent regioisomer 11 (PDGFR-β; relative to 6-substituted regioisomer 11): > 33 fold; toxicity in six week toxicity determination study [2]: no overt toxicity
2-digit micromolar inhibition | COc1ccc(OC)c(Cn2ccc3c(Nc4cccc(Br)c4)nc(N)nc32)c1 [Compound 13a, N^4-(3-bromophenyl)-7-(2,5-dimethoxybenzyl)-7H-pyrrolo[2,3-d]pyrimidine-2,4-diamine] | – | – | VEGFR-2 inhibition, result in words (VEGFR-2): inactive even at 200 μM; EGFR inhibition, fold less potent than the standard 20 (EGFR): 346 fold
abolished | Nc1nc(Nc2cccc(Br)c2)c2ccn(Cc3ccc4ccccc4c3)c2n1 [Compound 17a, N^4-(3-bromophenyl)-7-(2-naphthylmethyl)-7H-pyrrolo[2,3-d]pyrimidine-2,4-diamine] | 2.8 fold | 2 | PDGFRβ inhibition, fold less active than the standard 22 (PDGFR-β): 34 fold
abolished | Nc1nc(Nc2cccc(Br)c2)c2ccn(Cc3ccc(-c4ccccc4)cc3)c2n1 [Compound 18a, 7-Biphenyl-4-ylmethyl-N^4-(3-bromo-phenyl)-7H-pyrrolo[2,3-d]pyrimidine-2,4-diamine] | – | – | VEGFR-1 inhibition, result in words (VEGFR-1): inactive at a concentration of 200 μM
inactivity | COc1cc(Cn2ccc3c(Nc4cccc(Br)c4)nc(N)nc32)cc(OC)c1OC [Compound 19a, N^4-(3-Bromo-phenyl)-7-(3,4,5-trimethoxy-benzyl)-7H-pyrrolo[2,3-d]pyrimidine-2,4-diamine] | about 8.8 fold | 2 | PDGFRβ inhibition, result in words (PDGFR-β): single digit micromolar concentrations

SMILES | EGFR inhibition, result in words (EGFR) | VEGFR-1 inhibition, fold less active than the standard 21 (VEGFR-1) | VEGFR-2 inhibition, fold less active than the standard 23 (VEGFR-2) [fold] | also measured
Nc1nc(Nc2cccc(Br)c2)c2ccn(Cc3ccc(Cl)cc3Cl)c2n1 [Compound 14a, N^4-(3-bromophenyl)-7-(2,4-dichlorobenzyl)-7H-pyrrolo[2,3-d]pyrimidine-2,4-diamine] | inactivity | – | – | VEGFR-2 inhibition, result in words (VEGFR-2): inactive
Nc1nc(Nc2cccc(Br)c2)c2ccn(Cc3ccc(Cl)c(Cl)c3)c2n1 [Compound 15a, N^4-(3-bromophenyl)-7-(3,4-dichlorobenzyl)-7H-pyrrolo[2,3-d]pyrimidine-2,4-diamine] | inactivity | 7 fold | 6 | –
Nc1nc(Nc2cccc(Br)c2)c2ccn(Cc3cccc4ccccc34)c2n1 [Compound 16a, N^4-(3-bromophenyl)-7-(1-naphthylmethyl)-7H-pyrrolo[2,3-d]pyrimidine-2,4-diamine] | abolished | 8.4 fold | 1.4 | VEGFR-2 inhibition, fold less active than parent regioisomer 16 (VEGFR-2; 16a versus 16): 3 fold; PDGFRβ inhibition, fold less active than the standard 22 (PDGFR-β): 20 fold
